Reference: patent publication US8008305B2, “TAAR1 ligands” (Hoffmann-La Roche Inc., priority 2007, dated 2011)

biological target: T1, TAAR1 (Mus musculus, UniProt Q923Y8); assay: Radioligand binding ([3H]-rac-2-(1,2,3,4-tetrahydro-1-naphthyl)-2-imidazoline) on membranes of HEK293 cells stably expressing TAAR1; details: TAAR1 binding assay; species not given; read-out: calculated Kd value of the radioligand
T1 construct: expressed in transfected cells; host or cells: HEK293 cells (ATCC # CRL-1573), stably transfected with pIRESneo2 expression plasmid; membranes prepared
T1 sequence (Q923Y8 whole entry): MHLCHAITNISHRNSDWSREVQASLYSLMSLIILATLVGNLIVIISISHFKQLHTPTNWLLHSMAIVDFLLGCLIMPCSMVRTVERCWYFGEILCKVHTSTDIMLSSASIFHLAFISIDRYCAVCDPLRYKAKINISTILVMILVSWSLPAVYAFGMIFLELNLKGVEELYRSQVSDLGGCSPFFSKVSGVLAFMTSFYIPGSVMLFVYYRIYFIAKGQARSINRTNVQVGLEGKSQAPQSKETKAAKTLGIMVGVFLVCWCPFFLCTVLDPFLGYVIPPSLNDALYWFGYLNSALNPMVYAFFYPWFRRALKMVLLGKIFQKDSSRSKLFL
Protocol: Construction of TAAR Expression Plasmids and Stably Transfected Cell Lines
For the construction of expression plasmids the coding sequences of human, rat and mouse TAAR 1 were amplified from genomic DNA essentially as described by Lindemann et al.. The Expand High Fidelity PCR System (Roche Diagnostics) was used with 1.5 mM Mg^2+ and purified PCR products were cloned into pCR2.1-TOPO cloning vector (Invitrogen) following the instructions of the manufacturer. PCR products were subcloned into the pIRESneo2 vector (BD Clontech, Palo Alto, Calif.), and expression vectors were sequence verified before introduction in cell lines.
HEK293 cells (ATCC # CRL-1573) were cultured essentially as described Lindemann et al. (2005). For the generation of stably transfected cell lines HEK293 cells were transfected with the pIRESneo2 expression plasmids containing the TAAR coding sequences (described above) with Lipofectamine 2000 (Invitrogen) according to the instructions of the manufacturer, and 24 hrs post transfection the culture medium was supplemented with 1 mg/ml G418 (Sigma, Buchs, Switzerland). After a culture period of about 10 d clones were isolated, expanded and tested for responsiveness to trace amines (all compounds purchased from Sigma) with the cAMP Biotrak Enzyme immunoassay (EIA) System (Amersham) following the non-acetylation EIA procedure provided by the manufacturer.
Membrane Preparation and Radioligand Binding
Cells at confluence were rinsed with ice-cold phosphate buffered saline without Ca^2+ and Mg^2+ containing 10 mM EDTA and pelleted by centrifugation at 1000 rpm for 5 min at 4° C. The pellet was then washed twice with ice-cold phosphate buffered saline and cell pellet was frozen immediately by immersion in liquid nitrogen and stored until use at −80° C. Cell pellet was then suspended in 20 ml HEPES-NaOH (20 mM), pH 7.4 containing 10 mM EDTA, and homogenized with a Polytron (PT 3000, Kinematica) at 10,000 rpm for 10 s. The homogenate was centrifuged at 48,000×g for 30 min at 4° C. and the pellet resuspended in 20 ml HEPES-NaOH (20 mM), pH 7.4 containing 0.1 mM EDTA (buffer A), and homogenized with a Polytron at 10,000 rpm for 10 s. The homogenate was then centrifuged at 48,000×g for 30 min at 4° C. and the pellet resuspended in 20 ml buffer A, and homogenized with a Polytron at 10,000 rpm for 10 s. Protein concentration was determined by the method of Pierce (Rockford, Ill.). The homogenate was then centrifuged at 48,000×g for 10 min at 4° C., resuspended in HEPES-NaOH (20 mM), pH 7.0 including MgCl2 (10 mM) and […] homogenized with a Polytron at 10,000 rpm for 10 s.
Binding assay was performed at 4° C. in a final volume of 1 ml, and with an incubation time of 30 min. The radioligand [^3H]-rac-2-(1,2,3,4-tetrahydro-1-naphthyl)-2-imidazoline was used at a concentration equal to the calculated Kd value of 60 nM to give a bound at around 0.1% of the total added radioligand concentration, and a specific binding which represented approximately 70-80% of the total binding. Non-specific binding was defined as the amount of [^3H]-rac-2-(1,2,3,4-tetrahydro-1-naphthyl)-2-imidazoline bound in the presence of the appropriate unlabelled ligand (10 μM). Competing ligands were tested in a wide range of concentrations (10 pM-30 μM). […] Each experiment was performed in duplicate. All incubations were terminated by rapid filtration through UniFilter-96 plates (Packard Instrument Company) and glass filter GF/C, pre-soaked for at least 2 h in polyethylenimine 0.3%, and using a Filtermate 96 Cell Harvester (Packard Instrument Company). The tubes and filters were then washed 3 times with 1 ml aliquots of cold buffer B. Filters were not dried and soaked in Ultima gold (45 μl/well, Packard Instrument Company) and bound radioactivity was counted by a TopCount Microplate Scintillation Counter (Packard Instrument Company).

Row | Compound | Kd [nM]
1 | c1ccc2c(c1)CCCC2C1=NCCN1 (racemic) [[^3H]-rac-2-(1,2,3,4-tetrahydro-1-naphthyl)-2-imidazoline, reference compound] | 60

same assay, conditions: mouse TAAR1; radioligand at 60 nM, 4° C., 30 min incubation

Row | Compound | Ki [µM]
2 | CN1CCN(c2ccc(C(=O)NCCc3ccccc3)cn2)CC1 [A, 6-(4-methyl-piperazin-1-yl)-N-phenethyl-nicotinamide, reference compound] | 0.044
3 | CN1CCN(c2ccc(C(=O)NCc3ccc(Cl)cc3)cn2)CC1 [Example 2] | 0.013
4 | COc1cccc(CCNC(=O)c2ccc(N3CCN(C)CC3)nc2)c1 [Example 10, N-[2-(3-Methoxy-phenyl)-ethyl]-6-(4-methyl-piperazin-1-yl)-nicotinamide] | 0.049
5 | CN1CCN(c2ccc(C(=O)NCC3CCCCC3)cn2)CC1 [Example 55, N-Cyclohexylmethyl-6-(4-methyl-piperazin-1-yl)-nicotinamide] | 0.062
6 | CN1CCN(c2ncc(C(=O)NCCc3ccc(Cl)cc3)cc2Br)CC1 [Example 31, 5-Bromo-N-[2-(4-chloro-phenyl)-ethyl]-6-(4-methyl-piperazin-1-yl)-nicotinamide] | 0.006
7 | CN1CCN(c2ccc(C(=O)NCCc3ccc(Cl)cc3)cn2)CC1 [Example 6, N-[2-(4-Chloro-phenyl)-ethyl]-6-(4-methyl-piperazin-1-yl)-nicotinamide] | 0.005
8 | CN1CCN(c2ncc(C(=O)NCCc3ccc(Oc4ccccc4)cc3)cc2Br)CC1 [Example 32, 5-Bromo-6-(4-methyl-piperazin-1-yl)-N-[2-(4-phenoxy-phenyl)-ethyl]-nicotinamide] | 0.005
9 | CN1CCN(c2ccc(C(=O)NCCc3ccc(-c4ccccc4)cc3)cn2)CC1 [Example 12, N-(2-Biphenyl-4-yl-ethyl)-6-(4-methyl-piperazin-1-yl)-nicotinamide] | 0.028
10 | O=C(NCCc1ccc(Cl)cc1)c1ccc(N2CCNCC2)nc1 [Example 26, N-[2-(4-Chloro-phenyl)-ethyl]-6-piperazin-1-yl-nicotinamide] | 0.081
11 | CN1CCN(c2ccc(C(=O)NCCC3CCCCC3)cn2)CC1 [Example 54, N-(2-Cyclohexyl-ethyl)-6-(4-methyl-piperazin-1-yl)-nicotinamide] | 0.012
12 | CN1CCN(c2ccc(C(=O)NCCc3ccc(OCc4ccccc4)cc3)cn2)CC1 [Example 15, N-[2-(4-Benzyloxy-phenyl)-ethyl]-6-(4-methyl-piperazin-1-yl)-nicotinamide] | 0.006
13 | COc1ccc(CCNC(=O)c2ccc(N3CCN(C)CC3)nc2)cc1 [Example 9, N-[2-(4-Methoxy-phenyl)-ethyl]-6-(4-methyl-piperazin-1-yl)-nicotinamide] | 0.091
14 | CN1CCN(c2ccc(C(=O)NCCc3cccc(Cl)c3)cn2)CC1 [Example 7, N-[2-(3-Chloro-phenyl)-ethyl]-6-(4-methyl-piperazin-1-yl)-nicotinamide] | 0.027
15 | O=C(NCCc1ccc(Cl)cc1)c1cnc(N2CCNCC2)c(Br)c1 [Example 33, 5-Bromo-N-[2-(4-chloro-phenyl)-ethyl]-6-piperazin-1-yl-nicotinamide] | 0.019
16 | O=C(NCCc1ccc(OCc2ccccc2)cc1)c1ccc(N2CCNCC2)nc1 [Example 30, N-[2-(4-Benzyloxy-phenyl)-ethyl]-6-piperazin-1-yl-nicotinamide] | 0.028
17 | CN1CCN(c2ccc(C(=O)NCCc3ccc(Oc4ccccc4)cc3)cn2)CC1 [Example 13, 6-(4-Methyl-piperazin-1-yl)-N-[2-(4-phenoxy-phenyl)-ethyl]-nicotinamide] | 0.004
18 | CN1CCN(c2ccc(C(=O)NCCc3cn(C)c4ccccc34)cn2)CC1 [Example 18, N-[2-(1-Methyl-1H-indol-3-yl)-ethyl]-6-(4-methyl-piperazin-1-yl)-nicotinamide] | 0.023
19 | CN1CCN(c2ccc(C(=O)NCCc3cccc(Oc4ccccc4)c3)cn2)CC1 [Example 14, 6-(4-Methyl-piperazin-1-yl)-N-[2-(3-phenoxy-phenyl)-ethyl]-nicotinamide] | 0.068
20 | CN1CCC(Oc2ccc(C(=O)NCCc3ccc(Oc4ccccc4)cc3)cn2)CC1 [Example 24, 6-(1-Methyl-piperidin-4-yloxy)-N-[2-(4-phenoxy-phenyl)-ethyl]-nicotinamide] | 0.019
21 | CN1CCN(c2ccc(C(=O)NCc3ccccc3)cn2)CC1 [Example 1, N-Benzyl-6-(4-methyl-piperazin-1-yl)-nicotinamide] | 0.071
22 | O=C(NCCc1cccc(Oc2ccccc2)c1)c1ccc(N2CCNCC2)nc1 [Example 29, N-[2-(3-Phenoxy-phenyl)-ethyl]-6-piperazin-1-yl-nicotinamide] | 0.071
23 | O=C(NCCc1ccc(Oc2ccccc2)cc1)c1cnc(N2CCNCC2)c(Br)c1 [Example 34, 5-Bromo-N-[2-(4-phenoxy-phenyl)-ethyl]-6-piperazin-1-yl-nicotinamide] | 0.009
24 | CN1CCN(c2ccc(C(=O)NCCc3cccc(C(F)(F)F)c3)cn2)CC1 [Example 8, 6-(4-Methyl-piperazin-1-yl)-N-[2-(3-trifluoromethyl-phenyl)-ethyl]-nicotinamide] | 0.01
25 | O=C(NCCc1ccc(Oc2ccccc2)cc1)c1ccc(N2CCNCC2)nc1 [Example 28, N-[2-(4-Phenoxy-phenyl)-ethyl]-6-piperazin-1-yl-nicotinamide] | 0.016
26 | CN1CCN(c2ccc(C(=O)NCCc3ccc4c(c3)OCO4)cn2)CC1 [Example 11, N-(2-Benzo[1,3]dioxol-5-yl-ethyl)-6-(4-methyl-piperazin-1-yl)-nicotinamide] | 0.043
